Results reported in ChEMBL document CHEMBL1201862, “PubChem BioAssay data set” (2004).
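Where inhibition never reached the appropriate level, the endpoint shown equals the highest concentration tested. Otherwise, values were interpolated linearly from a five-concentration, 48-hour dose response in 96-well plates. GI50 marks 50% less growth.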 Activity calls are given as the source filed them. Cut-off read from the data, not from the text of the source: active = GI50 up to about 1.1 µM and inactive = higher.

What was measured:
Assay in all cases: NCI tumour cell line growth inhibition, 48 h
[1] = test system: SNB-19
[2] = test system: SK-MEL-2
[3] = test system: HCC 2998
[4] = test system: SF-268
[5] = test system: OVCAR-3
[6] = test system: CCRF-CEM
[7] = test system: K562
[8] = test system: DMS-273
[9] = test system: NCI-H226
[10] = test system: A549
[11] = test system: HT-29
[12] = test system: HOP-62
[13] = test system: UACC-257
[14] = test system: NCI-H23
[15] = test system: SW-620
[16] = test system: NCI/ADR-RES
[17] = test system: SK-OV-3
[18] = test system: OVCAR-8
[19] = test system: DLD-1
[20] = test system: HL-60

Row | SMILES | GI50 [1] | GI50 [2] | GI50 [3] | GI50 [4] | GI50 [5] | GI50 [6] | GI50 [7] | GI50 [8] | GI50 [9] | GI50 [10] | GI50 [11] | GI50 [12] | GI50 [13] | GI50 [14] | GI50 [15] | GI50 [16] | GI50 [17] | GI50 [18] | GI50 [19] | GI50 [20]
1 | CC(=O)C(=O)NC1/C=C(C)\C=C/C(O)C/C=C(C)\C=C/C(O)CC2OC(=O)C1(C)C(=O)C2C (stereo not drawn) | > 100 µM (inactive) | > 100 µM (inactive) | > 100 µM (inactive) | > 100 µM (inactive) | > 100 µM (inactive) | > 76.7 µM (inactive) | > 61.1 µM (inactive) | > 100 µM (inactive) | > 100 µM (inactive) | > 100 µM (inactive) | > 100 µM (inactive) | > 100 µM (inactive) | > 100 µM (inactive) | > 100 µM (inactive) | > 100 µM (inactive) | > 100 µM (inactive) | > 100 µM (inactive) | > 100 µM (inactive) | > 100 µM (inactive) | –
2 | CSC(=S)N(C)c1nc(N(C)C)s[s+]1 | > 100 µM (inactive) | > 100 µM (inactive) | > 100 µM (inactive) | > 100 µM (inactive) | – | > 100 µM (inactive) | > 100 µM (inactive) | > 100 µM (inactive) | > 100 µM (inactive) | 51.5 µM (inactive) | > 100 µM (inactive) | > 100 µM (inactive) | > 100 µM (inactive) | > 100 µM (inactive) | > 100 µM (inactive) | – | > 100 µM (inactive) | > 100 µM (inactive) | > 100 µM (inactive) | 65.2 µM (inactive)
3 | CSc1nc(NC2OC(CO)C(O)C(O)C2O)c(N)c(=O)n1C (stereo not drawn) | > 100 µM (inactive) | > 100 µM (inactive) | > 100 µM (inactive) | > 100 µM (inactive) | > 100 µM (inactive) | > 100 µM (inactive) | > 100 µM (inactive) | > 100 µM (inactive) | > 100 µM (inactive) | > 100 µM (inactive) | > 100 µM (inactive) | > 100 µM (inactive) | > 100 µM (inactive) | > 100 µM (inactive) | > 100 µM (inactive) | > 100 µM (inactive) | > 100 µM (inactive) | > 100 µM (inactive) | > 100 µM (inactive) | > 100 µM (inactive)
4 | O=S(=O)(CCBr)CCBr | 17.6 µM (inactive) | 11.3 µM (inactive) | 6.95 µM (inactive) | 3.99 µM (inactive) | 3.67 µM (inactive) | 2.96 µM (inactive) | 3.98 µM (inactive) | 4.59 µM (inactive) | 19.2 µM (inactive) | 13.9 µM (inactive) | 5.94 µM (inactive) | 0.506 µM (active) | 3.82 µM (inactive) | 6.52 µM (inactive) | 2.23 µM (inactive) | 2.17 µM (inactive) | 19.3 µM (inactive) | 2.32 µM (inactive) | 2.86 µM (inactive) | 2.59 µM (inactive)
5 | NCCCn1c(Cl)nc2ccccc21 | > 100 µM (inactive) | > 100 µM (inactive) | > 100 µM (inactive) | > 100 µM (inactive) | > 100 µM (inactive) | > 100 µM (inactive) | > 100 µM (inactive) | – | > 100 µM (inactive) | > 100 µM (inactive) | > 100 µM (inactive) | > 100 µM (inactive) | – | > 100 µM (inactive) | > 100 µM (inactive) | > 100 µM (inactive) | > 100 µM (inactive) | > 100 µM (inactive) | – | > 100 µM (inactive)
6 | CNC(=S)N/N=C(/C)CCC/C(C)=N/NC(=S)NC | > 100 µM (inactive) | > 100 µM (inactive) | – | > 35.2 µM (inactive) | 0.411 µM (active) | 0.145 µM (active) | 0.408 µM (active) | – | > 61.7 µM (inactive) | 5.45 µM (inactive) | 0.499 µM (active) | > 100 µM (inactive) | > 100 µM (inactive) | > 100 µM (inactive) | – | > 100 µM (inactive) | > 100 µM (inactive) | 57.4 µM (inactive) | – | > 100 µM (inactive)
7 | C[n+]1ccc(Nc2ccc(NC(=O)c3ccc(Nc4cc[n+](C)c5ccc([N+](=O)[O-])cc45)cc3[N+](=O)[O-])cc2)cc1 | > 73.3 µM (inactive) | 48.8 µM (inactive) | > 100 µM (inactive) | 40.6 µM (inactive) | 18.9 µM (inactive) | 24.4 µM (inactive) | 14.3 µM (inactive) | 34.9 µM (inactive) | > 56.1 µM (inactive) | 22.5 µM (inactive) | – | 59.8 µM (inactive) | 24.3 µM (inactive) | > 55.6 µM (inactive) | > 100 µM (inactive) | > 85.7 µM (inactive) | 60.3 µM (inactive) | 31.7 µM (inactive) | > 92 µM (inactive) | –
8 | CO/N=C1/c2sccc2[C@H](NC(=O)C(Cc2ccccc2)NC(=O)OC(C)(C)C)[C@@H]1O (stereo partly drawn) | > 100 µM (inactive) | > 100 µM (inactive) | > 100 µM (inactive) | > 100 µM (inactive) | > 100 µM (inactive) | > 100 µM (inactive) | > 100 µM (inactive) | – | > 100 µM (inactive) | > 100 µM (inactive) | > 100 µM (inactive) | > 100 µM (inactive) | > 100 µM (inactive) | > 100 µM (inactive) | > 100 µM (inactive) | > 100 µM (inactive) | > 100 µM (inactive) | > 100 µM (inactive) | – | 85.1 µM (inactive)
9 | CCC1CN2CCc3cc(OC)c(OC)cc3C2CC1CC1c2cc(OC)c(OC)cc2CCN1C(=O)C(N)Cc1ccccc1.[O-][Cl+3]([O-])([O-])O (stereo not drawn) | 1.85 µM (inactive) | 2.23 µM (inactive) | 0.564 µM (active) | 3.37 µM (inactive) | 4.16 µM (inactive) | 0.41 µM (active) | 0.238 µM (active) | 1.98 µM (inactive) | – | 1.6 µM (inactive) | 0.486 µM (active) | 2.73 µM (inactive) | 2.35 µM (inactive) | 2.42 µM (inactive) | 0.49 µM (active) | – | 4.65 µM (inactive) | 1.97 µM (inactive) | 3.38 µM (inactive) | 1.59 µM (inactive)
10 | C=C1CC(OC)(C(OC)C(=O)N(C)[C@H]2OCO[C@H]3C2O[C@H](C[C@@H](COC)OC)C(C)(C)C3OC)O[C@H](C)[C@@H]1C (stereo partly drawn) | 8.97 µM (inactive) | – | 10.8 µM (inactive) | 4.6 µM (inactive) | 10 µM (inactive) | 7.71 µM (inactive) | 13.6 µM (inactive) | 6.9 µM (inactive) | 6.19 µM (inactive) | 16 µM (inactive) | 5.77 µM (inactive) | > 91.6 µM (inactive) | 11.6 µM (inactive) | 9.57 µM (inactive) | 14 µM (inactive) | 7.91 µM (inactive) | – | 8.43 µM (inactive) | 18.3 µM (inactive) | 15.9 µM (inactive)
11 | Cc1cc(C)c2c(c1)CC1(Cc3c(C)ccc(C)c3C1=O)C2=O (stereo not drawn) | > 100 µM (inactive) | > 100 µM (inactive) | > 100 µM (inactive) | > 100 µM (inactive) | > 100 µM (inactive) | > 100 µM (inactive) | > 100 µM (inactive) | – | > 100 µM (inactive) | > 100 µM (inactive) | – | – | > 100 µM (inactive) | – | > 100 µM (inactive) | > 100 µM (inactive) | – | > 100 µM (inactive) | – | > 100 µM (inactive)
12 | CCOC(=O)c1csc(NC(=O)C(C)N2CCOCC2)n1 (stereo not drawn) | > 100 µM (inactive) | > 100 µM (inactive) | > 100 µM (inactive) | – | > 100 µM (inactive) | > 100 µM (inactive) | > 100 µM (inactive) | – | – | > 100 µM (inactive) | > 100 µM (inactive) | > 100 µM (inactive) | > 100 µM (inactive) | > 100 µM (inactive) | > 100 µM (inactive) | > 100 µM (inactive) | > 100 µM (inactive) | > 100 µM (inactive) | – | > 100 µM (inactive)
13 | N#CCCN(CCC#N)c1ccc(/C=C2\N=C(c3cc([N+](=O)[O-])ccc3Cl)N(S(=O)(=O)c3ccccc3)C2=O)cc1 | > 100 µM (inactive) | > 100 µM (inactive) | > 100 µM (inactive) | > 100 µM (inactive) | > 100 µM (inactive) | > 100 µM (inactive) | > 100 µM (inactive) | > 100 µM (inactive) | > 100 µM (inactive) | > 100 µM (inactive) | – | > 100 µM (inactive) | – | > 100 µM (inactive) | > 100 µM (inactive) | – | > 100 µM (inactive) | > 100 µM (inactive) | > 100 µM (inactive) | –
